Assay results as given in patent US9669044B2, “Aminoglycoside and azole compositions and methods” (Utah State University, priority 2010, dated 2017).
Values after ≈ are worked out from the molar mass of the structure shown. Like-named read-outs stand apart in the source and are kept apart here.

How the values were obtained:
[1] = test system: Fusarium graminearum; test: microbe, parasite or virus in culture; assay type: cell-based; settings: for MIC: Fusarium graminearum, read-out: MIC (growth inhibition)
[2] = test system: Azole-resistant Candida albicans ATCC 10231; test: Microdilution checkerboard assay of K20 and azoles; assay type: cell-based; settings: for MIC: Candida albicans, ATCC10231, read-out: MIC, azole alone; for MIC of azole in combination with K20: combined with K20; for Effect (drug interaction class by FICI) / FICI (Fractional Inhibitory Concentration Index): the row's azole combined with K20
[3] = test system: Rhodotorula pilimanae; test: Disk diffusion growth inhibitory assay; assay type: cell-based; design: Relative Activity (zone of inhibition diameter): key: +++, considerable activity; ++, moderate activity; −−−, no activity
[4] = test system: Chinese Hamster Ovary (CHO) cells (line 1-15); assay type: cell-based; settings: 3.7 μg mL^−1
Protocol: Method: […] The cells were transferred into sterile 50 mL Falcon conical plastic tubes containing 10 mL of the medium at a cell density of 2.5×10^5 cells mL^-1. […] The suspensions were incubated with continuous agitation for 48 h at 37° C. with 5% CO2 in a humidified incubator. After 24 and 48 h, lmL portions of the cell culture suspensions (drug treated or untreated) were transferred to Beckman Coulter Vi-Cell XR cups and mixed with Trypan Blue to determine cell counts and viability in a Beckman Coulter Vi-Cell counter.

[5] = test system: Azole-resistant Candida albicans ATCC 10231; test: Disk diffusion test for synergistic inhibition by itraconazole and K20; assay type: cell-based
[6] = test system: Escherichia coli B; test: Bacterial MIC test in trypticase soy broth; assay type: cell-based; settings: 35° C., 12-18 hrs
Protocol: (§1) For purposes of the experiments discussed in this paragraph, the MIC is defined as the lowest concentration of compound needed to inhibit the growth of bacteria. A solution of a selected bacterium was inoculated into trypticase soy broth (Difco, B D, Franklin Lakes, N.J., USA), at 35° C. and incubated for 1-2 hours. […] The 96-well plate was incubated at 35° C. for 12-18 hrs. The MIC tests were repeated at least three times.

[7] = test system: Micrococcus luteus; test: Bacterial MIC test in trypticase soy broth; assay type: cell-based; settings: 35° C., 12-18 hrs
Protocol: as §1

[8] = test system: Micrococcus luteus; test: Disk diffusion growth inhibitory assay; assay type: cell-based; design: key to the marks not given beside the values; settings: PDA-CA medium
[9] = test system: Escherichia coli TG1; assay type: cell-based; design: key to the marks not given beside the values; also: key: +++, considerable activity; ++, moderate activity; −−−, no activity
[10] = test system: Staphylococcus aureus ATCC 6538; test: Disk diffusion growth inhibitory assay; assay type: cell-based; design: key to the marks not given beside the values; settings: PDA-CA medium
[11] = test system: Rhodotorula pilimanae; test: microbe, parasite or virus in culture; assay type: cell-based; settings: Rhodotorula mucilaginosa
[12] = test system: Penicillium spp; assay type: cell-based; design: key to the marks not given beside the values; also: key: +++, considerable activity; ++, moderate activity; −−−, no activity
[13] = test system: Cladosporium cladosporioides; assay type: cell-based; design: key to the marks not given beside the values; also: key: +++, considerable activity; ++, moderate activity; −−−, no activity
[14] = test system: Ulocladium spp.; test: Disk diffusion growth inhibitory assay; assay type: cell-based; design: key: +++, considerable activity; ++, moderate activity; −−−, no activity; settings: PDA-CA medium
[15] = test system: Fusarium oxysporum; test: Disk diffusion growth inhibitory assay; assay type: cell-based; design: key: +++, considerable activity; ++, moderate activity; −−−, no activity; settings: PDA-CA medium
[16] = test system: Fusarium culmorum; assay type: cell-based; design: key to the marks not given beside the values; also: key: +++, considerable activity; ++, moderate activity; −−−, no activity
[17] = test system: Fusarium graminearum; assay type: cell-based; settings: disk diffusion, PDA-CA medium
[18] = test system: Rhizopus stolonifer; test: Disk diffusion growth inhibitory assay; assay type: cell-based; design: key: +++, considerable activity; ++, moderate activity; −−−, no activity; settings: PDA-CA medium
[19] = test system: Mucor haemalis; test: Disk diffusion growth inhibitory assay; assay type: cell-based; design: key: +++, considerable activity; ++, moderate activity; −−−, no activity; settings: PDA-CA medium
[20] = test system: Candida albicans ATCC 10231; test: Disk diffusion growth inhibitory assay; assay type: cell-based; design: key: +++, considerable activity; ++, moderate activity; −−−, no activity; settings: PDA-CA medium
[21] = test system: Azole-resistant Candida albicans ATCC 10231; test: Time-kill curves of itraconazole and K20; settings: K20 alone, 32 μg mL^−1
Protocol: Method: Strain Candida albicans ATCC 10231 was prepared at an inoculum size of 10^5 c.f.u. mL^−1 in PDB-CA medium. The drug concentrations used were 32 μg mL^−1 for K20 and 0.18 μg mL^−1 for itraconazole. At designated times (0, 3, 6, 9, 24 and 48 h after incubation), 100 μL aliquots were removed from each solution and serially diluted 10-fold in sterile water. One hundred μL volumes of each dilution were streaked on agar surfaces of potato dextrose agar plates to allow growth. Colony counts were determined after incubation for 48 h. The experiment was performed triplicate.

[22] = test system: Microdochium nivale; assay type: cell-based; design: key to the marks not given beside the values; also: key: +++, considerable activity; ++, moderate activity; −−−, no activity
[23] = test system: Saccharomyces cerevisiae W303C; assay type: cell-based; design: key to the marks not given beside the values; also: key: +++, considerable activity; ++, moderate activity; −−−, no activity

CCCCCCCC(=O)OC[C@H]1OC(O[C@@H]2C(N)CC(N)C(O[C@H]3OC(CN)[C@@H](O)[C@H](O)C3O)[C@@H]2O)[C@H](O)[C@H](N)C1O (stereo partly drawn) [K05, 6″-O-octanoylkanamycin A]
MIC [1]: > 62.5 µg/mL
concentration giving no pigmentation ([1]; against Fusarium graminearum): 31.25 µg/mL

Clc1ccc(C(Cn2ccnc2)OCc2ccsc2Cl)c(Cl)c1 (stereo not drawn) [tioconazole]
MIC ([2]; checkerboard, PDB-CA): 0.25 µg/mL
MIC of azole in combination with K20 ([2]; checkerboard): 0.03 µg/mL
Effect (drug interaction class by FICI) [2]: synergy
FICI (Fractional Inhibitory Concentration Index) [2]: 0.25

CCCCCCCCNC[C@H]1OC(O[C@@H]2C(N)CC(N)C(O[C@H]3OC(CN)[C@@H](O)[C@H](O)C3O)[C@@H]2O)[C@H](O)[C@H](N)C1O (stereo partly drawn) [K17, 6″-deoxy-6″-octylaminokanamycin A]
activity in inhibition zone assay ([3]; against Rhodotorula pilimanae, result in words): Not determined. Only inhibition zone assay and not active against Rhodotorula pilimanae

CCC(C)n1ncn(-c2ccc(N3CCN(c4ccc(OCC5COC(Cn6cncn6)(c6ccc(Cl)cc6Cl)O5)cc4)CC3)cc2)c1=O (stereo not drawn) [itraconazole]
decrease in cell viability [4]: 63%
Zone of growth inhibition / fungicidal activity ([5]; ITC alone, 0.5 μg mL^−1 per disc): no fungicidal activities
MIC ([2]; checkerboard, PDB-CA): > 3 µg/mL
MIC of azole in combination with K20 ([2]; checkerboard): 0.18 µg/mL
Effect (drug interaction class by FICI) [2]: synergy
FICI (Fractional Inhibitory Concentration Index) [2]: 0.31

Clc1ccccc1C(c1ccccc1)(c1ccccc1)n1ccnc1 [chlotrimazole]
MIC, azole alone ([2]; checkerboard, PDB-CA): 1.25 µg/mL
MIC of azole in combination with K20 ([2]; checkerboard): 0.15 µg/mL
Effect (drug interaction class by FICI) [2]: synergy
FICI (Fractional Inhibitory Concentration Index) [2]: 0.18

CCCCCCS(=O)(=O)OC[C@H]1OC(O[C@@H]2C(N)CC(N)C(O[C@H]3OC(CN)[C@@H](O)[C@H](O)C3O)[C@@H]2O)[C@H](O)[C@H](N)C1O (stereo partly drawn) [K22, 6″-O-hexanesulfonylkanamycin A]
MIC [1]: 31.3 µg/mL (≈ 49.5 µM)

CC1(C)CCC(Cc2ccc(Cl)cc2)C1(O)Cn1cncn1 (stereo not drawn) [metconazole]
MIC ([2]; checkerboard, PDB-CA): 2.5 µg/mL
MIC of azole in combination with K20 ([2]; checkerboard): 0.15 µg/mL
Effect (drug interaction class by FICI) [2]: synergy
FICI (Fractional Inhibitory Concentration Index) [2]: 0.12

NC[C@H]1O[C@H](O[C@H]2[C@H](O)[C@@H](O[C@H]3O[C@H](CO)[C@@H](O)[C@H](N)[C@H]3O)[C@H](N)C[C@@H]2N)[C@H](N)[C@@H](O)[C@@H]1O [kanamycin B]
MIC [6]: 1.95 µg/mL (≈ 4.03 µM)
MIC [7]: 0.98 µg/mL (≈ 2.03 µM)

NCC1O[C@H](OC2C(N)CC(N)[C@@H](OC3O[C@H](CO)C(O)[C@@H](N)[C@H]3O)[C@H]2O)C(O)[C@@H](O)[C@@H]1O (stereo partly drawn) [kanamycin A]
Relative Activity (zone of inhibition diameter) [8]: +++
Relative Activity (zone of inhibition diameter) [9]: +++
MIC ([6]; read-out: MIC): 1.95 µg/mL (≈ 4.02 µM)
MIC ([7]; read-out: MIC): 0.98 µg/mL (≈ 2.02 µM)
Relative Activity (zone of inhibition diameter) [10]: +++

Cc1ccc(S(=O)(=O)OC[C@H]2OC(O[C@@H]3C(N)CC(N)C(O[C@H]4OC(CN)[C@@H](O)[C@H](O)C4O)[C@@H]3O)[C@H](O)[C@H](N)C2O)cc1 (stereo partly drawn) [K19, 6″-O-toluenesulfonylkanamycin A]
inhibition of Rhodotorula ([3]; result in words, assay type (MIC or disk diffusion) not stated): relatively little but nevertheless some inhibition of Rhodotorula

CCCCCCCCSC[C@H]1OC(O[C@@H]2C(N)CC(N)C(O[C@H]3OC(CN)[C@@H](O)[C@H](O)C3O)[C@@H]2O)[C@H](O)[C@H](N)C1O (stereo partly drawn) [K18, 6″-deoxy-6″octylthiokanamycin A]
MIC [11]: 62.5 µg/mL (≈ 102 µM)
MIC [1]: 15.6 µg/mL (≈ 25.5 µM)

CCCCCCCCS(=O)(=O)OCC1OC(OC2C(N)CC(N)C(OC3OC(CN)C(O)C(O)C3O)C2O)C(O)C(N)C1O (stereo not drawn) [K20, 6″-O-octanesulfonylkanamycin A]
Relative Activity (zone of inhibition diameter) [12]: ++
Relative Activity (zone of inhibition diameter) [13]: ++
Relative Activity (zone of inhibition diameter) [14]: +++
Relative Activity (zone of inhibition diameter) [3]: +++
Relative Activity (zone of inhibition diameter) [15]: ++
Relative Activity (zone of inhibition diameter) [16]: +++
Relative Activity (zone of inhibition diameter) [17]: ^b+++
Relative Activity (zone of inhibition diameter) [18]: +++
Zone of growth inhibition / fungicidal activity ([5]; K20 alone, 32 μg mL^−1 per disc): no fungicidal activities
Relative Activity (zone of inhibition diameter) [19]: +++
MIC, K20 alone ([2]; checkerboard, PDB-CA): 128 µg/mL
MIC of K20 in combination ([2]; in combination with chlotrimazole): 8 µg/mL
MIC of K20 in combination ([2]; in combination with fluconazole): 16 µg/mL
MIC of K20 in combination ([2]; in combination with itraconazole): 32 µg/mL
MIC of K20 in combination ([2]; in combination with ketoconazole): 32 µg/mL
MIC of K20 in combination ([2]; in combination with metconazole): 8 µg/mL
MIC of K20 in combination ([2]; in combination with posaconazole): 16 µg/mL
MIC of K20 in combination ([2]; in combination with pyraclostrobin): 16 µg/mL
MIC of K20 in combination ([2]; in combination with tioconazole): 16 µg/mL
MIC of K20 in combination ([2]; in combination with voriconazole): 4 µg/mL
Relative Activity (zone of inhibition diameter) [20]: ++
time-kill effect [21]: the same as the control
MIC [6]: 250 µg/mL (≈ 378 µM)
MIC [7]: 62.5 µg/mL (≈ 94.6 µM)
Relative Activity (zone of inhibition diameter) [22]: +++
Relative Activity (zone of inhibition diameter) [23]: ++

CC(=O)N1CCN(c2ccc(OCC3COC(Cn4ccnc4)(c4ccc(Cl)cc4Cl)O3)cc2)CC1 (stereo not drawn) [ketoconazole]
MIC ([2]; checkerboard, PDB-CA): 24 µg/mL
MIC of azole in combination with K20 ([2]; checkerboard): 1.5 µg/mL
Effect (drug interaction class by FICI) [2]: synergy
FICI (Fractional Inhibitory Concentration Index) [2]: 0.31

COC(=O)N(OC)c1ccccc1COc1ccn(-c2ccc(Cl)cc2)n1 [pyraclostrobin]
MIC ([2]; checkerboard, PDB-CA): 6 µg/mL
MIC of azole in combination with K20 ([2]; checkerboard): 0.75 µg/mL
Effect (drug interaction class by FICI) [2]: synergy
FICI (Fractional Inhibitory Concentration Index) [2]: 0.25

CC[C@@H]([C@H](C)O)n1ncn(-c2ccc(N3CCN(c4ccc(OC[C@@H]5CO[C@@](Cn6cncn6)(c6ccc(F)cc6F)C5)cc4)CC3)cc2)c1=O [posaconazole]
MIC ([2]; checkerboard, PDB-CA): > 0.75 µg/mL
MIC of azole in combination with K20 ([2]; checkerboard): 0.09 µg/mL
Effect (drug interaction class by FICI) [2]: synergy
FICI (Fractional Inhibitory Concentration Index) [2]: 0.24

C[C@@H](c1ncncc1F)[C@](O)(Cn1cncn1)c1ccc(F)cc1F [voriconazole]
MIC ([2]; checkerboard, PDB-CA): > 1 µg/mL
MIC of azole in combination with K20 ([2]; checkerboard): 0.125 µg/mL
Effect (drug interaction class by FICI) [2]: synergy
FICI (Fractional Inhibitory Concentration Index) [2]: 0.15

OC(Cn1cncn1)(Cn1cncn1)c1ccc(F)cc1F [fluconazole]
MIC ([2]; checkerboard, PDB-CA): > 24 µg/mL
MIC of azole in combination with K20 ([2]; checkerboard): 3 µg/mL
Effect (drug interaction class by FICI) [2]: synergy
FICI (Fractional Inhibitory Concentration Index) [2]: 0.18
